# Legend:
# [1] = test system: Rhizoctonia solani; test: Rhizoctonia test (cotton)/Drench; format: in vivo; details: greenhouse, 30 ml drench per pot, 7 days at 20° C., BioAct 4 × 10^11 cfu/seed, F70 1.2 mg ai/seed
# Procedure: (§1) The test is performed under greenhouse conditions.
# Perlite was incubated with mycelia of Rhizoctonia solani. Infected perlite was scattered in a 1:1 mix of steamed field soil and sand and was incubated in a dark box in greenhouse for 6 days. After soil incubation, cotton seeds were sown in 6*6 cm pots containing this soil mixture.
# Compounds and compound combinations were suspended and diluted with water to the desired concentrations. 30 ml of compound or compound combination preparation were drenched on each pot. Pots were incubated in the greenhouse for 7 days at 20° C.
# Assessment consisted of counting of emerged seedlings. 0% means an efficacy which corresponds to that of the untreated control, while an efficacy of 100% means that all seedlings have emerged.
# [2] = test system: cotton (variety Vicky) seedlings; test: Hypocotyl growth enhancement (cotton)/Drench; format: in vivo; details: 7 days after sowing
# Procedure: as §1
# Five cotton (variety Vicky) seeds were sown in a 6*6 cm pot containing 1:1 mix of steamed field soil and sand. Compounds and compound combinations were suspended and diluted with water to the desired concentrations. Just after sowing, 30 ml of compound or compound combination preparation were drenched on each pot. The pots (three replications per treatment) were placed in randomized arrangement in the greenhouse and kept at 20° C. for 7 days.
# Length of hypocotyls was measured at 7 days after sowing.
structure (smiles),measurement,setting,value
"O=C(NCCc1ncc(C(F)(F)F)cc1Cl)c1ccccc1C(F)(F)F [F70 fluopyram, fluopyram]",Efficacy in % found (activity found; emerged seedlings),[1],0%
same,Seedling/hypocotyl length compared in words,[2]; drench,significantly higher than untreated
same,"Hypocotyl (length, average of 15 seedlings)","[2]; greenhouse, 30 ml drench per pot, 20° C., BioAct 4 × 10^11 cfu/plant, F70 1.2 mg ai/plant, untreated 5.3",5.9 cm

# From patent publication US9763454B2, “Composition comprising a biological control agent and a fungicide” (Bayer CropScience AG, priority 2012, dated 2017)
